Laboratory results published in patent US4713238A (GAF Corporation, priority 1986, dated 1987).
Converted amounts (≈) assume the structure as drawn.

Tests used:
[1] = cited from earlier work
[2] = physchem; details: water
Protocol: The pH was adjusted with a buffer solution to 6 and distilled water was added to bring the solution to 1% concentration. The resulting mixture was agitated on a horizontal shaker at room temperature for 24 hours.
The pH was then adjusted to 6.5 with a concentrated aqueous hydrochloric acid solution to convert the complexed salt to the complexed product of the process and agitation was continued for 2 hours.

NS(=O)(=O)c1cc2c(cc1Cl)N=CNS2(=O)=O [chlorothiazide, 6-chloro-7-sulfamyl-1,2,4-benzothiadiazine-1,1-dioxide]
solubility in alkaline aqueous solutions ([1]; alkaline aqueous solutions / alkali hydroxides): soluble in alkaline aqueous solutions | water-solubility ([1]; pH 6): 0.5 g. per liter | solubility thermodynamic at 24 h ([2]; pH 6, water): 500 µg/mL (≈ 1690 µM) | solubility ([2]; water solubility of uncomplexed chlorothiazide): ~500 µg/mL (≈ 1690 µM)
